According to US20260250262A1, “NEW COMPOUND AND PHARMACEUTICAL COMPOSITION COMPRISING SAME” (SAMJIN PHARMACEUTICAL CO., LTD., priority 2023, published 2026):

Legend:
[1] = molecular target: T1, Recombinant NAMPT protein (Homo sapiens, UniProt P43490); test: NAMPT enzyme inhibition assay (BPS Bioscience NAMPT Inhibitor Screening Assay Kit); assay type: biochemical; settings: 30 min pre-incubation, 2 h at 30° C., fluorescence
T1 construct: purchased BPS bioscience #7176-1
Experimental: Recombinant NAMPT protein was added to each well of a black 96-well plate, and dilution buffer was added to a blank well instead of NAMPT protein. A 5× concentrated compound solution was added and pre-incubated at room temperature (approximately 22° C.) for 30 minutes before the start of the reaction so that the compound and protein might bind before the enzyme reaction. At this time, the concentration of NAMPT protein was adjusted and used according to the enzyme activity of each protein lot within the final concentration range of 4-10 ng/μl, and the test compound was serially diluted at a ratio of 1:3 from 1000 nM to 1 nM, and experiments were conducted with n=2 for about seven concentrations. […] The NAMPT enzyme activity (%) was calculated by subtracting the measurement value of the blank well without NAMPT protein from the measurement value of all wells, and then taking the measurement value of the control well without the compound as 100%.

[2] = system: NCI-N87 (gastric cancer); test: Tumor cytotoxicity assay (MTT), NCI-N87; assay type: cell-based; settings: Homo sapiens, NCI-N87, 72 hours
Experimental: (§1) First, the compounds were prepared in 100% dimethyl sulfoxide (DMSO) at concentrations of 0.02 μM to 200 μM, and then diluted in the culture medium so that the final concentration of DMSO might reach 0.5%, and treated with the drugs. The final concentration range of the compounds was 0.1 nM to 1000 nM. After that, they were further incubated for 72 hours under conditions of 37° C. and CO2 5%. […] The cell viability (%) was relatively determined by subtracting the reference 650 nm optical density (O.D.) from the 570 nm O.D., and the 0.5% DMSO-treated control was set as 100% as the standard.

[3] = system: HCT-116 cell lines; test: Cellular NAD measurement assay (NAD/NADH-Glo); assay type: cell-based; settings: Homo sapiens; HCT-116, 24 hours treatment, intracellular NAD+/NADH level
Experimental: With regard to HCT-116 cell lines, the decrease in intracellular NAD+ and NADH levels due to the inhibition of NAMPT enzyme activity by compounds was evaluated using NAD/NADH-Glo™ Assay (Promega, G9072) from Promega. The cells were incubated using DMEM (Gibco, 11995-065) medium containing 10% FBS. The HCT-116 cells were incubated for 24 hours after being distributed at a density of 2,500 cells per well in a 96-well plate, and were treated with the drugs using serum-free DMEM. First, the compounds were dissolved in 100% dimethyl sulfoxide (DMSO), and then diluted in the culture medium so that the final concentration of DMSO might reach 0.5%, and treated with the drugs. The final concentration range of the compounds was 0.1 nM to 100 nM. After that, they were further incubated for 24 hours under conditions of 37° C. and CO2 5%. To conduct the NAD/NADH-Glo™ Assay, the culture medium of drug-treated cells was removed, 50 μL of DPBS was treated per well, and left at room temperature for five minutes. The required amount of NAD/NADH-Glo™ Detection Reagent (Reconstituted Luciferin Detection Reagent 1 mL, Reductase 5 μL, Reductase Substrate 5 μL, NAD Cycling Enzyme 5 μL, NAD Cycling Substrate 25 μL) was prepared according to the manufacturer's manual and treated in an amount of 50 μL per well. After incubating for two minutes at 400 rpm in a plate shaker for cell lysis, the cells were incubated for 30 minutes at room temperature, and luminescence was measured. NAD+/NADH levels were calculated by subtracting the measurement value of the blank well without cells from the measurement value of all wells and taking the 0.5% DMSO-treated control as 100%.

[4] = system: HCT-116 (colorectal cancer); test: Tumor cytotoxicity assay (MTT), HCT-116; assay type: cell-based; settings: Homo sapiens, HCT-116, 72 hours
Experimental: as §1

T1 sequence (P43490 whole entry): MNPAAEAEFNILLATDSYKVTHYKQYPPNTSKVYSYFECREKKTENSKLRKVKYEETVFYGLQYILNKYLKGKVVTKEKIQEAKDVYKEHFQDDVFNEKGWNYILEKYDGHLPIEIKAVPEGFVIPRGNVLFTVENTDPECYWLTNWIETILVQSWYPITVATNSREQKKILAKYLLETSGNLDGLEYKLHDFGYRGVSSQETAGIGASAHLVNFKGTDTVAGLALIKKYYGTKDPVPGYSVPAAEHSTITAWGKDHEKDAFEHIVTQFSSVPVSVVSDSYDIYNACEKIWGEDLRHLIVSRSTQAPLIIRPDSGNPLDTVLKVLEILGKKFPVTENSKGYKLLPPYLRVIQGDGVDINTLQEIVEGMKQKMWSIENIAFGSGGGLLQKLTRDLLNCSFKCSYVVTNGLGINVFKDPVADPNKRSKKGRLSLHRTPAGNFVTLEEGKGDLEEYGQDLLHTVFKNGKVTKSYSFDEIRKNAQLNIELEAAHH

With `O=C(NCCc1cccnc1)Nc1ccc(-c2cccc(N3CCOCC3)c2)c(C#Cc2ccc(F)cc2)c1` [Compound 9, 1-(2-((4-fluorophenyl)ethynyl)-3′-morpholino-[1,1′-biphenyl]-4-yl)-3-(2-(pyridin-3-yl)ethyl)urea] the IC50 [1] was 500 to 1000 nM.
In the case of `Cn1ccc(CS(=O)(=O)c2ccc(NC(=O)NCCc3cccnc3)cc2C#Cc2ccc(F)cc2)n1` [Compound 69], the IC50 [1] is reported as < 500 nM.
In the case of `O=C(NCCn1ccnc1[N+](=O)[O-])Nc1ccc(-c2ccncc2)c(C#Cc2ccc(F)cc2)c1` [Compound 8, 1-(3-((4-fluorophenyl)ethynyl)-4-(pyridin-4-yl)phenyl)-3-(2-(2-nitro-1H-imidazol-1-yl)ethyl)urea], the IC50 [1] is reported as > 1000 nM.
For `O=C(NCCc1cccnc1)Nc1ccc(N2CCNCC2)c(C#Cc2ccc(F)cc2)c1` [Compound 118], the IC50 [1] was > 1000 nM.
With `Nc1cccc(C#Cc2cc(NC(=O)NCCc3cccnc3)ccc2-c2ccncc2)c1` [Compound 139] the IC50 [1] was < 500 nM.
For `O=C(NCCc1ccc([N+](=O)[O-])nc1)Nc1ccc(-c2ccncc2)c(C#Cc2ccc(F)cc2)c1` [Compound 182], the IC50 [1] was > 1000 nM.
`O=C(NCCc1cccnc1)Nc1ccc(CC(=O)N2CCCCC2)c(C#Cc2ccc(F)cc2)c1` [Compound 74] was tested, and the IC50 [1] was < 500 nM and the CC50 [2] was < 30 nM.
With `CC(=O)Nc1ccc(C#Cc2cc(NC(=O)NCCc3cccnc3)ccc2-c2ccncc2)cc1` [Compound 126, N-(4-((5-(3-(2-(pyridin-3-yl)ethyl)ureido)-2-(pyridin-4-yl)phenyl)ethynyl)phenyl)acetamide] the IC50 [1] was < 500 nM and the CC50 [2] was < 30 nM.
In the case of `CCC(=O)Nc1ccc(NC(=O)NCCc2cccnc2)cc1C#Cc1ccc(F)cc1` [Compound 122], the IC50 [1] is reported as < 500 nM.
In the case of `O=C(NCCc1cccnc1)Nc1ccc(-c2ccncc2)c(C#Cc2ccc(C(=O)NCCN3CCNCC3)cc2)c1` [Compound 47], the IC50 [1] is reported as < 500 nM, the IC50 [3] is reported as 10 to 1000 nM and the CC50 [4] is reported as < 30 nM. The CC50 [2] was 30 to 100 nM.
`O=C(NCCc1cccnc1)Nc1ccc(-c2ccncc2)c(C#Cc2ccc(F)cc2)c1` [Compound 1, 1-(3-((4-fluorophenyl)ethynyl)-4-(pyridin-4-yl)phenyl)-3-(2-(pyridin-3-yl)ethyl)urea] was tested, and the IC50 [1] was < 500 nM, the IC50 [3] was 10 to 1000 nM and the CC50 [4] was 30 to 100 nM. For the same molecule, the CC50 [2] was 30 to 100 nM.
With `O=C(NCCn1ccnc1)Nc1ccc(-c2ccncc2)c(C#Cc2ccc(F)cc2)c1` [Compound 3, 1-(2-(1H-imidazol-1-yl)ethyl)-3-(3-((4-fluorophenyl)ethynyl)-4-(pyridin-4-yl)phenyl)urea] the IC50 [1] was 500 to 1000 nM.
For `NC1CCN(C(=O)c2ccc(C#Cc3cc(NC(=O)NCCc4cccnc4)ccc3-c3ccncc3)cc2)CC1` [Compound 65, 1-(3-((4-(4-aminopiperidin-1-carbonyl)phenyl)ethynyl)-4-(pyridin-4-yl)phenyl)-3-(2-(pyridin-3-yl)ethyl)urea], the IC50 [1] was < 500 nM and the CC50 [4] was 30 to 100 nM.
For `O=C(NCCc1cccnc1)Nc1ccc(C(=O)Nc2ccccc2)c(C#Cc2ccc(C(=O)NCCN3CCCCC3)cc2)c1` [Compound 95], the IC50 [1] was < 500 nM.
In the case of `NC1CCCN(CCNC(=O)c2ccc(C#Cc3cc(NC(=O)NCCc4cccnc4)ccc3-c3ccncc3)cc2)C1` (stereo not shown) [Compound 40], the IC50 [1] is reported as < 500 nM, the CC50 [4] is reported as 30 to 100 nM and the CC50 [2] is reported as 30 to 100 nM.
`Cc1nc2cc(-c3ccc(NC(=O)NCCc4cccnc4)cc3C#Cc3ccc(F)cc3)ccc2c(=O)[nH]1` [Compound 14] was tested, and the IC50 [1] was < 500 nM, the IC50 [3] was ≤ 10 nM and the CC50 [4] was < 30 nM. For the same molecule, the CC50 [2] was < 30 nM.
For `O=C(NCc1ccn2ccnc2c1)Nc1ccc(-c2ccncc2)c(C#Cc2ccc(C3CCNCC3)cc2)c1` [Compound 187], the IC50 [1] was < 500 nM, the IC50 [3] was ≤ 10 nM and the CC50 [4] was < 30 nM. For the same molecule, the CC50 [2] was < 30 nM.
With `O=C(NCCCc1cn[nH]c1)Nc1ccc(-c2ccncc2)c(C#Cc2ccc(F)cc2)c1` [Compound 110] the IC50 [1] was < 500 nM.
With `Cc1nc2cc(-c3ccc(NC(=O)NCc4ccn5ccnc5c4)cc3C#Cc3ccc(F)cc3)ccc2c(=O)n1CCN` [Compound 188] the IC50 [1] was < 500 nM, the CC50 [4] was < 30 nM and the CC50 [2] was < 30 nM.
With `O=C(NCCc1cccnc1)Nc1ccc(-c2ccc(C(=O)N3CCC(F)(F)CC3)cc2)c(C#Cc2ccc(F)cc2)c1` [Compound 2, 1-(4′-(4,4-difluoropiperidine-1-carbonyl)-2-((4-fluorophenyl)ethynyl)-[1,1′-biphenyl]-4-yl)-3-(2-(pyridin-3-yl)ethyl)urea] the IC50 [1] was < 500 nM.
`NC1CCCN(c2ccc(NC(=O)NCCc3cccnc3)cc2C#Cc2ccc(C(=O)NCCN3CCCCC3)cc2)C1` (stereo not shown) [Compound 184] gave an IC50 [1] of 500 to 1000 nM.
With `O=C(NCCc1cccc(O)c1)Nc1ccc(-c2ccncc2)c(C#Cc2ccc(F)cc2)c1` [Compound 5, 1-(3-((4-fluorophenyl)ethynyl)-4-(pyridin-4-yl)phenyl)-3-(3-hydroxyphenethyl)urea] the IC50 [1] was > 1000 nM.
In the case of `O=C(NCCc1ccc2ocnc2c1)Nc1ccc(-c2ccncc2)c(C#Cc2ccc(F)cc2)c1` [Compound 11], the IC50 [1] is reported as > 1000 nM.
In the case of `O=C(NCCc1cccnc1)Nc1ccc(-c2ccncc2)c(C#Cc2ccc(C(=O)NC3CCNCC3)cc2)c1` [Compound 66, N-(piperidin-4-yl)-4-((5-(3-(2-(pyridin-3-yl)ethyl)ureido)-2-(pyridin-4-yl)phenyl)ethynyl)benzamide], the IC50 [1] is reported as < 500 nM, the CC50 [4] is reported as 30 to 100 nM and the CC50 [2] is reported as < 30 nM.
Work on `O=C(NCc1ccn2ccnc2c1)Nc1ccc(-c2ccc(N3CCNCC3)cc2)c(C#Cc2ccc(F)cc2)c1` [Compound 185] yielded an IC50 [1] of 500 to 1000 nM.
With `O=C(NCc1cc2cnccc2[nH]1)Nc1ccc(-c2ccncc2)c(C#Cc2ccc(F)cc2)c1` [Compound 6, 1-((1H-pyrrolo[3,2-c]pyridin-2-yl)methyl)-3-(3-((4-fluorophenyl)ethynyl)-4-(pyridin-4-yl)phenyl)urea] the IC50 [1] was < 500 nM and the CC50 [4] was 30 to 100 nM.
With `O=C(NCCc1cccnc1)Nc1ccc(-c2ccc3cnccc3c2)c(C#Cc2ccc(F)cc2)c1` [Compound 57] the IC50 [1] was < 500 nM.
`Nc1cccc(C(=O)Nc2ccc(NC(=O)NCCc3cccnc3)cc2C#Cc2ccc(F)cc2)c1` [Compound 177] was tested, and the IC50 [1] was < 500 nM.
`CC(C(=O)NC1CCCCC1)c1ccc(NC(=O)NCCc2cccnc2)cc1C#Cc1ccc(C(=O)NCCN2CCCCC2)cc1` (stereo not shown) [Compound 89] was tested, and the IC50 [1] was < 500 nM and the CC50 [4] was 30 to 100 nM.
`Cn1ccc(CS(=O)(=O)c2ccc(NC(=O)NCc3ccn4ccnc4c3)cc2C#Cc2ccc(F)cc2)n1` [Compound 183, 1-(3-((4-fluorophenyl)ethynyl)-4-(((1-methyl-1H-pyrazol-3-yl)methyl)sulfonyl)phenyl)-3-(imidazo[1,2-a]pyridin-7-ylmethyl)urea] was tested, and the IC50 [1] was < 500 nM, the IC50 [3] was ≤ 10 nM and the CC50 [4] was < 30 nM.
`NC1CCN(C(=O)c2cccc(-c3ccc(NC(=O)NCCc4cccnc4)cc3C#Cc3ccc(C(=O)NCCN4CCCCC4)cc3)c2)C1` (stereo not shown) [Compound 43] was tested, and the IC50 [1] was > 1000 nM.
For `O=C(NCCc1cccnc1)Nc1ccc(-c2ccncc2)c(C#Cc2ccc(C(=O)NCCN3CCC4(CCNC4)CC3)cc2)c1` [Compound 35], the IC50 [1] was < 500 nM, the CC50 [4] was 30 to 100 nM and the CC50 [2] was 30 to 100 nM.
`O=C(NCCc1cccnc1)Nc1ccc(NC(=O)c2ccc(F)cc2)c(C#Cc2ccc(F)cc2)c1` [Compound 124] was tested, and the IC50 [1] was < 500 nM.
In the case of `Nc1cccc(C(=O)N2CCN(c3ccc(NC(=O)NCCc4cccnc4)cc3C#Cc3ccc(F)cc3)CC2)c1` [Compound 52], the IC50 [1] is reported as < 500 nM.
`Nc1ccc(CCNC(=O)Nc2ccc(-c3ccncc3)c(C#Cc3ccc(F)cc3)c2)cn1` [Compound 10] was tested, and the IC50 [1] was > 1000 nM.
In the case of `O=C(NCCc1cccnc1)Nc1ccc(-c2ccncc2)c(C#Cc2ccc(C(=O)NCCN3CCCCC3)cc2)c1` [Compound 7, N-(2-(piperidin-1-yl)ethyl)-4-((5-(3-(2-(pyridin-3-yl)ethyl)ureido)-2-(pyridin-4-yl)phenyl)ethynyl)benzamide], the IC50 [1] is reported as < 500 nM and the CC50 [4] is reported as < 30 nM.
